Test results taken from US10676471B2, “Cycloalkyl-linked diheterocycle derivatives” (Pfizer Inc., priority 2014, dated 2020).

System: BT20 Cell
Assay: Cancer Cell Lysate Total L-Glutamate Assay
Format: cell-based
Conditions: Homo sapiens, BT-20, 2 h, total L-glutamate in cell lysate, BT20 cells, 2 hour incubation with test compound
In short: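 BT20 and other cancer lines at ~80% confluence were given fresh L-glutamine-containing medium, then treated with serially diluted compound (0.5% DMSO) for 2 hours at 37° C. Washed cells were lysed by freeze-thaw and sonication. Lysate glutamate was measured via glutamate oxidase/HRP/50 μM Amplex Red fluorescence (ex 530-560, em 585 nm); IC50 by four-parameter logistic fit.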

IC50	Structure (SMILES)
13 nM	Cn1ccc(Nc2nnc(C3CCC(Cc4nnc(NC(=O)Cc5ccccn5)s4)C3)s2)n1 (racemic) [Example 88, (rac)-N-(5-{[(cis)-3-{5-[(1-methyl-1H-pyrazol-3-yl)amino]-1,3,4-thiadiazol-2-yl}cyclopentyl]methyl}-1,3,4-thiadiazol-2-yl)-2-(pyridin-2-yl)acetamide]
4.7 nM	O=C(Cc1ccccn1)Nc1ccc([C@H]2C[C@@H](Cc3nnc(NC(=O)Cc4ccccn4)s3)C2)nn1 (single isomer, unassigned) [Example 124, 2-(pyridin-2-yl)-N-{5-[(cis-3-{6-[(pyridin-2-ylacetyl)amino]pyridazin-3-yl}cyclobutyl)methyl]-1,3,4-thiadiazol-2-yl}acetamide]
196 nM	O=C(Cc1ccccn1)Nc1nnc(C2CCCC(c3nnc(NC(=O)Cc4ccccn4)s3)C2)s1 (racemic) [Example 139, N,N′-[cyclohexane-1,3-diyldi-1,3,4-thiadiazole-5,2-diyl]bis[2-(pyridin-2-yl)acetamide]]
4580 nM	Nc1nnc(C[C@@H]2CC[C@H](c3nnc(N)s3)C2)s1 (single isomer, unassigned) [Example 40]
989 nM	CC(=O)Nc1nnc(CC2CCC(c3nnc(NC(=O)c4ccccc4)s3)C2)s1 (racemic) [Example 48, (rac)-N-{5-[(cis)-3-{[5-(acetylamino)-1,3,4-thiadiazol-2-yl]methyl}cyclopentyl]-1,3,4-thiadiazol-2-yl}benzamide]
12.6 nM	CC(=O)Nc1nnc([C@@H]2CC[C@H](Cc3nnc(NC(=O)c4ccccc4F)s3)C2)s1 (racemic) [Example 148, (rac)-N-[5-({(cis)-3-[5-(acetylamino)-1,3,4-thiadiazol-2-yl]cyclopentyl}methyl)-1,3,4-thiadiazol-2-yl]-2-fluorobenzamide]
8.5 nM	CC(C)C(=O)Nc1nnc(C2CC3(C2)CC(c2nnc(NC(=O)C(C)C)s2)C3)s1 (racemic) [Example 94, (rac)-N,N′-(spiro[3.3]heptane-2,6-diyldi-1,3,4-thiadiazole-5,2-diyl)bis(2-methylpropanamide)]
1.9 nM	CC(C(=O)Nc1nnc(CC2CCC(c3nnc(NC(=O)C(C)c4cccnc4)s3)C2)s1)c1cccnc1 (racemic) [Example 30, (rac)-2-(pyridin-3-yl)-N-(5-{[(cis)-3-(5-{[2-(pyridin-3-yl)propanoyl]amino}-1,3,4-thiadiazol-2-yl)cyclopentyl]methyl}-1,3,4-thiadiazol-2-yl)propanamide]
0.8 nM	C[C@@H](c1nnc(NC(=O)Cc2ccccn2)s1)[C@H]1C[C@@H](c2nnc(NC(=O)Cc3ccccn3)s2)C1 (single isomer, unassigned) [Example 103]
8750 nM	CC(=O)Nc1nnc([C@@H]2CC[C@H](Cc3nnc(NC(=O)Cc4cncnc4)s3)C2)s1 (single isomer, unassigned) [Example 50, N-[5-({(cis)-3-[5-(acetylamino)-1,3,4-thiadiazol-2-yl]cyclopentyl}methyl)-1,3,4-thiadiazol-2-yl]-2-(pyrimidin-5-yl)acetamide]
2.4 nM	O=C(Cc1ccccn1)Nc1nnc(CC2CCC(c3nnc(Nc4ncccn4)s3)C2)s1 (racemic) [Example 83, (rac)-2-(pyridin-2-yl)-N-[5-({(cis)-3-[5-(pyrimidin-2-ylamino)-1,3,4-thiadiazol-2-yl]cyclopentyl}methyl)-1,3,4-thiadiazol-2-yl]acetamide]
8.2 nM	O=C(Cc1ccccn1)Nc1nnc(C[C@@H]2CC[C@@H](c3nnc(Nc4ccccn4)s3)C2)s1 (single isomer, unassigned) [Example 85, 2-(pyridin-2-yl)-N-[5-({3-[5-(trans)(pyridin-2-ylamino)-1,3,4-thiadiazol-2-yl]cyclopentyl}methyl)-1,3,4-thiadiazol-2-yl]acetamide]
23.8 nM	CC(=O)Nc1nnc(C2CC[C@@H](Cc3nnc(NC(=O)c4ccccc4)s3)C2)s1 (single isomer, unassigned) [Example 13, N-[5-({(cis)-3-[5-(acetylamino)-1,3,4-thiadiazol-2-yl]cyclopentyl}methyl)-1,3,4-thiadiazol-2-yl]benzamide]
